# In the NIST ThermoML archive (doi:10.1016/j.fluid.2005.07.008):
# Several values for one entry are separate records, joined by “and”; a condition that tells them apart may be missing. Equal entries are not always repeated. ± gives the expanded uncertainty stated by the source.
# Details: Liquid
compound,measurement,setting,value
c1ccccc1 [benzene],vapor or sublimation pressure,298.15 K,12.7 ± 0.44 kPa
same,vapor or sublimation pressure,303.15 K,15.92 ± 0.52 kPa
same,vapor or sublimation pressure,308.15 K,19.66 ± 0.61 kPa
same,vapor or sublimation pressure,313.15 K,24.33 ± 0.73 kPa
CCO [ethanol],vapor or sublimation pressure,298.15 K,7.876 ± 0.32 kPa
same,vapor or sublimation pressure,303.15 K,10.47 ± 0.38 kPa
same,vapor or sublimation pressure,308.15 K,13.77 ± 0.47 kPa
same,vapor or sublimation pressure,313.15 K,17.93 ± 0.57 kPa
CO [methanol],vapor or sublimation pressure,298.15 K,16.97 ± 0.071 kPa and 16.96 ± 0.55 kPa
same,vapor or sublimation pressure,303.15 K,21.88 ± 0.086 kPa and 21.88 ± 0.67 kPa
same,vapor or sublimation pressure,308.15 K,27.96 ± 0.11 kPa and 27.96 ± 0.82 kPa
same,vapor or sublimation pressure,313.15 K,35.44 ± 0.13 kPa and 35.45 ± 1 kPa
same,vapor or sublimation pressure,318.15 K,44.54 ± 0.16 kPa
same,vapor or sublimation pressure,323.15 K,55.58 ± 0.19 kPa
CCCO [propan-1-ol],vapor or sublimation pressure,298.15 K,2.786 ± 0.19 kPa
same,vapor or sublimation pressure,303.15 K,3.826 ± 0.22 kPa
same,vapor or sublimation pressure,308.15 K,5.199 ± 0.25 kPa
same,vapor or sublimation pressure,313.15 K,6.986 ± 0.3 kPa
